The term IC50 denotes the midpoint of a concentration-inhibition curve. Higher therefore signals a need for much substance.

T1 sequence (P28845 whole entry): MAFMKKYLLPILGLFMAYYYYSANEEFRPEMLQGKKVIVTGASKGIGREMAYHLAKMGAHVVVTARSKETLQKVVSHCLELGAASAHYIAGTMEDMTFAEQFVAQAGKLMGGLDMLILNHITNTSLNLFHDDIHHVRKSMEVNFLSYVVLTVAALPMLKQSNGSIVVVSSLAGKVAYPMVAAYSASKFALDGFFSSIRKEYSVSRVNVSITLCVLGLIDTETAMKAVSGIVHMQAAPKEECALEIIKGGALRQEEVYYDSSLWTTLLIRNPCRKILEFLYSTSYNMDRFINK

The first assay has as its target T1, 11βHSD1 (Homo sapiens, UniProt P28845).
Assay: not given
Set-up: host or cells: human volunteers and patients (in vivo). Particulars: lean healthy volunteers and people with type 2 diabetes; cited from earlier work.
On to `CC1(C)[C@@H](OC(=O)CCC(=O)O)CC[C@]2(C)[C@H]3C(=O)C=C4[C@@H]5C[C@@](C)(C(=O)O)CC[C@]5(C)CC[C@@]4(C)[C@]3(C)CC[C@@H]12` [carbenoxolone], for which the insulin sensitivity result was “improves insulin sensitivity”.

In a further assay the target is T1, 11βHSD1. Nature of the assay: 11βHSD1 enzyme assay (SPA, 3H-cortisone to 3H-cortisol). Particulars: extract of yeast transformed with h-11βHSD1; 120 nM 3H-cortisone, 4 mM β-NADPH, 60 min at 30° C. In kind it is biochemical. On the set-up: An extract of yeast transformed with h-11βHSD1 (Hutt et al., FEBS Lett., 441, 25 (1998)) was used as the source of enzyme; made in house. The protocol: Pharmacological Methods 11βHSD1 Enzyme Assay Materials
^3H-cortisone and anti-rabbit Ig coated scintillation proximity assay (SPA) beads were purchased from Amersham Pharmacia Biotech, β-NADPH was from Sigma and rabbit anti-cortisol antibodies were from Fitzgerald. An extract of yeast transformed with h-11βHSD1 (Hutt et al., FEBS Lett., 441, 25 (1998)) was used as the source of enzyme. The test compounds were dissolved in DMSO (10 mM). All dilutions were performed in a buffer containing 50 mM TRIS-HCl (Sigma Chemical Co), 4 mM EDTA (Sigma Chemical Co), 0.1% BSA (Sigma Chemical Co), 0.01% Tween-20 (Sigma Chemical Co) and 0.005% bacitracin (Novo Nordisk NS), pH=7.4. Optiplate 96 wells plates were supplied by Packard. The amount of ^3H-cortisol bound to the SPA beads was measured on TopCount NXT, Packard.
h-11βHSD1, 120 nM ^3H-cortisone, 4 mM β-NADPH, antibody (1:200), serial dilutions of test compound and SPA particles (2 mg/well) were added to the wells. The reaction was initiated by mixing the different components and was allowed to proceed under shaking for 60 min at 30° C. The reaction was stopped be the addition of 10 fold excess of a stopping buffer containing 500 μM carbenoxolone and 1 μM cortisone. Data was analysed using GraphPad Prism software.
In turn, `CCOC(=O)C12CCC(NC(=O)CCCOc3ccc(Cl)cc3Cl)(CC1)CC2` [Example 1-72, 4-[4-(2,4-Dichloro-phenoxy)-butyrylamino]-bicyclo[2.2.2]octane-1-carboxylic acid ethyl ester] gave a 50% inhibitory concentration (IC50) of 0.198 µM. On the same count and under the same terms, with `O=C(CCCOc1ccc(Cl)cc1Cl)NC12CCC(CO)(CC1)CC2` [Example 1-73, 4-(2,4-Dichloro-phenoxy)-N-(4-hydroxy-methyl-bicyclo[2.2.2]oct-1-yl)-butyramide] the figure was 0.001 µM; with `CN(C(=O)CCCOc1ccc(Cl)cc1Cl)C1CCC(C(=O)O)CC1` (stereo not shown) [Example 1-74, 4-{[4-(2,4-Dichloro-phenoxy)-butyryl]-methyl-amino}-cyclo-hexanecarboxylic acid], 0.809 µM; with `O=C(CCCOc1ccc(Cl)cc1Cl)NC1CCC(CO)CC1` (stereo not shown) [Example 1-75, 4-(2,4-Dichloro-phenoxy)-N-(4-hydroxy-methyl-cyclohexyl)-butyramide], 0.027 µM. The same measure, in the same setting: under `CN(C(=O)CCCOc1ccc(Cl)cc1Cl)C1CCC(C(N)=O)CC1` (stereo not shown) [Example 1-76, 4-{[4-(2,4-Dichloro-phenoxy)-butyryl]-methyl-amino}-cyclo-hexanecarboxylic acid amide] stands 0.018 µM; under `CN(C(=O)CCCOc1ccc(Cl)cc1Cl)C1CCC(C(C)(C)O)CC1` (stereo not shown) [Example 1-78, 4-(2,4-Dichloro-phenoxy)-N-[4-(1-hydroxy-1-methyl-ethyl)-cyclohexyl]-N-methyl-butyramide], 0.023 µM. For `CC(C)(O)C1CCC(NC(=O)CCCOc2ccc(Cl)cc2Cl)CC1` (stereo not shown) [Example 1-79, 4-(2,4-Dichloro-phenoxy)-N-[4-(1-hydroxy-1-methyl-ethyl)-cyclohexyl]-butyramide], the midpoint of inhibition, the IC50, lay at 0.3 µM. With `CCOC(=O)C1CC2CC1CC2N(C)C(=O)CCCOc1ccc(Cl)cc1Cl` (stereo not shown) [Example 1-80, 5-{[4-(2,4-Dichloro-phenoxy)-butyryl]-methyl-amino}-bicyclo[2.2.1]heptane-2-carboxylic acid ethyl ester], the IC50 is 0.7 µM. Same read-out and setting: under `CC(C)(O)C12CC3CC(C1)C(NC(=O)CCCOc1ccc(Cl)cc1Cl)C(C3)C2` (stereo not shown) [Example 1-83, 4-(2,4-Dichloro-phenoxy)-N-[5-(1-hydroxy-1-methyl-ethyl)-adamantan-2-yl]-butyramide] stands 0.009 µM; under `CN(C(=O)CCCOc1ccc(Cl)cc1Cl)C1CC2CC1CC2CO` (stereo not shown) [Example 1-84], 0.03 µM.

The compound `O=C(CCCOc1ccccn1)NC1C2CC3CC1CC(O)(C3)C2` (stereo not shown) [Example 1-87, N-(5-Hydroxy-adamantan-2-yl)-4-(pyridin-2-yloxy)-butyramide] gave an IC50 of 0.227 µM. The same measure, in the same setting: under `CC(C)(CCOc1ccc(Cl)cc1Cl)C(=O)NC1C2CC3CC1CC(O)(C3)C2` (stereo not shown) [Example 2-1, 4-(2,4-Dichloro-phenoxy)-N-(5-hydroxy-adamantan-2-yl)-2,2-dimethyl-butyramide] stands 0.002 µM; under `CC(C)(CCOc1ccc(Cl)cc1Cl)C(=O)N1C2CCC1CC(O)C2` (stereo not shown) [Example 2-3, 4-(2,4-Dichloro-phen-oxy)-1-(3-hydroxy-8-aza-bicyclo[3.2.1]oct-8-yl)-2,2-dimethyl-butan-1-one], 0.206 µM; under `CC(C)(CCOc1ccc(Cl)cc1Cl)C(=O)NC1C2CC3CC1CC(CO)(C3)C2` (stereo not shown) [Example 2-4, 4-(2,4-Dichloro-phen-oxy)-N-(5-hydroxy-methyl-adamantan-2-yl)-2,2-dimethyl-butyramide], 0.003 µM.

Turning to `O=C(NC1C2CC3CC1CC(O)(C3)C2)C1(CCOc2ccc(Cl)cc2Cl)CC1` (stereo not shown) [Example 2-5, 1-[2-(2,4-Dichloro-phen-oxy)-ethyl]-cyclo-pro-panecarboxylic acid (5-hydroxy-adamantan-2-yl)-amide], the IC50 worked out at 0.004 µM.

Values taken from patent US8383683B2, “Pharmaceutical use of substituted amides” (High Point Pharmaceuticals, LLC, priority 2007, dated 2013).
